Structures are written as SMILES. pIC50: −log10 of the molar value.

One assay has as its system IL-6 in A549 cells stimulated with IL-1β. Description: A549 Cell Assay to Measure Inflammation Markers (inhibition of IL-1β-induced IL-6). Format: cell-based. The settings on record: Homo sapiens, A549, A549 Cell Assay to Measure Inflammation Markers; intrinsic activity, Emax class ranges. The procedure, abridged: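 Compound pre-incubated with A549 cells 1 h at 37 °C, then stimulated with IL-1β (1 ng/mL final, 0.1% DMSO). Supernatant IL-6 quantified by MSD immunoassay after a further incubation. IC50 and Emax derived.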
For `CCn1nc(-c2ccccn2)c2c1NCCSC2c1ccc(C(=O)Nc2n[nH]cc2C#N)cc1C` (stereo not drawn) [S.8], the maximum response (Emax) was greater than 50%.

In turn, `CCn1nc(-c2ccccn2)c2c1NCCSC2c1ccc(C(=O)Nc2n[nH]c(C)c2C#N)cc1C` (stereo not drawn) [S.9] registered an Emax of less than 50%.

`CCn1nc(-c2ccccn2)c2c1NCCSC2c1ccc(C(=O)Nc2cccnc2Cl)cc1C` (stereo not drawn) [S.10] registered an Emax greater than 70%.

Another assay deals with T1, Glucocorticoid Receptor (GR) (Homo sapiens, UniProt P04150).
T1 construct: purchased Invitrogen P2893
T1 sequence (P04150 1-777): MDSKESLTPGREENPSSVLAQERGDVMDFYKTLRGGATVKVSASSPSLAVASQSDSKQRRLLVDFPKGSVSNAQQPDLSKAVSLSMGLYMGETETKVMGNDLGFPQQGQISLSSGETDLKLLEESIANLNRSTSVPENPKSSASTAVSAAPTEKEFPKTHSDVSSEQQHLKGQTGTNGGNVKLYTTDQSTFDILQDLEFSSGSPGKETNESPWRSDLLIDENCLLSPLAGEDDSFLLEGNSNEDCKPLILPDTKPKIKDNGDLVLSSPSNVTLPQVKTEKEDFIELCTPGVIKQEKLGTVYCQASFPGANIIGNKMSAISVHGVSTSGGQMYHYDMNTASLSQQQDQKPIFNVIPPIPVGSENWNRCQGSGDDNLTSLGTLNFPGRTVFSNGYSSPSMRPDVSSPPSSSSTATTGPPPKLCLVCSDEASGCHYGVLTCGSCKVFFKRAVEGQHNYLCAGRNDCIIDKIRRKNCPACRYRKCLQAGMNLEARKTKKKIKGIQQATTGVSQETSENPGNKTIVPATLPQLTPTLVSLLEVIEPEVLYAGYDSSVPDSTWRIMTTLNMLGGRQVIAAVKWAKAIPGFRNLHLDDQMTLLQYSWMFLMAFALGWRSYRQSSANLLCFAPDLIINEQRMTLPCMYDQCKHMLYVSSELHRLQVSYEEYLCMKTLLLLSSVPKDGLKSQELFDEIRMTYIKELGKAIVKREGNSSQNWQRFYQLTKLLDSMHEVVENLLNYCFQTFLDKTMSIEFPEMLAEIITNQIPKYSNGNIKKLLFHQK
The assay is described as follows: GR Fluorescence Polarization Assay (PolarScreen Glucocorticoid Receptor Competitor Assay, Red). The settings on record: IC50 class ranges, read-out: GR binding. An outline of the steps:
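Competitive fluorescence-polarization assay using a red fluorescent glucocorticoid tracer with human GR in kit buffer. Compounds serially diluted 1:4 in DMSO, incubated with tracer and GR overnight at 4° C, then polarization read.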
A general note: Polarisation of emitted light reports the rotation of a fluorescent probe.
As for `CCn1nc(-c2ccccn2)c2c1NCCSC2c1ccc(C(=O)Nc2n[nH]cc2C#N)cc1C` (stereo not drawn) [S.8], the pIC50 is greater than 7.00.

Turning to `CCn1nc(-c2ccccn2)c2c1NCCSC2c1ccc(C(=O)Nc2n[nH]c(C)c2C#N)cc1C` (stereo not drawn) [S.9], the pIC50 is greater than 7.00.

`CCn1nc(-c2ccccn2)c2c1NCCSC2c1ccc(C(=O)Nc2cccnc2Cl)cc1C` (stereo not drawn) [S.10]: the pIC50 was greater than 7.00.

Broadly, the Emax is the size of the effect at its maximum, as opposed to the concentration needed.

(Values after patent US9150592B2, “Heterocyclic nuclear hormone receptor modulators” (AbbVie Inc., priority 2012, dated 2015).)
